# Reference: ChEMBL document CHEMBL3885881, “DrugMatrix”
# Species: Rattus norvegicus
# Experiment: DrugMatrix - Regimen: Daily Repeat
# Assay type: toxicity, organism-based, Sprague-Dawley
# Set-up: regimen Daily Repeat, gender Male, age 6-8 weeks
# Conditions: in vivo, po, route oral GAVAGE, […]; for ABSOLUTE BASOPHIL / ABSOLUTE EOSINOPHIL / ABSOLUTE LYMPHOCYTE / ABSOLUTE MONOCYTE / ABSOLUTE SEGMENTED NEUTROPHIL / BASOPHIL / EOSINOPHIL / ERYTHROCYTE COUNT / HEMATOCRIT / HEMOGLOBIN / LEUKOCYTE COUNT / LYMPHOCYTE / MEAN CORPUSCULAR HEMOGLOBIN / MEAN CORPUSCULAR HEMOGLOBIN CONCENTRATION / MEAN CORPUSCULAR VOLUME / MONOCYTE / NEUTROPHIL / NUCLEATED RED BLOOD CELLS / PLATELET COUNT: tissue Blood; for ALANINE AMINOTRANSFERASE / ALBUMIN / ALKALINE PHOSPHATASE / ASPARTATE AMINOTRANSFERASE / BLOOD UREA NITROGEN / CARBON DIOXIDE / CHLORIDE / CHOLESTEROL / CREATINE PHOSPHOKINASE / CREATININE / GLUCOSE / LACTATE DEHYDROGENASE / LIPASE / PHOSPHORUS / POTASSIUM / SODIUM / TOTAL BILIRUBIN / TOTAL PROTEIN / URIC ACID: tissue Plasma
# [1] = 0 mg/kg, 72 h, dose level Control, time 3 day
# [2] = 0 mg/kg, 120 h, dose level Control, time 5 day
# [3] = 100 mg/kg, 72 h, dose level Low, time 3 day
smiles,measurement,setting,value
CCn1cc(C(=O)O)c(=O)c2cc(F)c(N3CCNCC3)nc21 [ENOXACIN],ABSOLUTE BASOPHIL,[1],0 CELLS/uL
same,ABSOLUTE EOSINOPHIL,[1],104.17 CELLS/uL
same,ABSOLUTE LYMPHOCYTE,[1],14547 CELLS/uL
same,ABSOLUTE MONOCYTE,[1],292 CELLS/uL
same,ABSOLUTE SEGMENTED NEUTROPHIL,[1],1640.17 CELLS/uL
same,BASOPHIL,[1],0%
same,EOSINOPHIL,[1],0.67%
same,ERYTHROCYTE COUNT,[1],5.35 x10E6/uL
same,HEMATOCRIT,[1],33.67%
same,HEMOGLOBIN,[1],13.38 G/DL
same,LEUKOCYTE COUNT,[1],16.58 x10E3/uL
same,LYMPHOCYTE,[1],87.5%
same,MEAN CORPUSCULAR HEMOGLOBIN,[1],25.05 pg
same,MEAN CORPUSCULAR HEMOGLOBIN CONCENTRATION,[1],39.78 G/DL
same,MEAN CORPUSCULAR VOLUME,[1],62.97 fL
same,MONOCYTE,[1],1.83%
same,NEUTROPHIL,[1],10%
same,NUCLEATED RED BLOOD CELLS,[1],0 /100WBC
same,PLATELET COUNT,[1],1274.5 x10E3/uL
same,ALANINE AMINOTRANSFERASE,[1],76.83 u/L
same,ALBUMIN,[1],3.97 G/DL
same,ALKALINE PHOSPHATASE,[1],347 u/L
same,ASPARTATE AMINOTRANSFERASE,[1],97.17 u/L
same,BLOOD UREA NITROGEN,[1],14.33 mg/dL
same,CARBON DIOXIDE,[1],25.5 mmol/L
same,CHLORIDE,[1],100.33 MEQ/L
same,CHOLESTEROL,[1],68.67 mg/dL
same,CREATINE PHOSPHOKINASE,[1],659.17 u/L
same,CREATININE,[1],0.32 mg/dL
same,GLUCOSE,[1],160.67 mg/dL
same,LACTATE DEHYDROGENASE,[1],271.5 u/L
same,LIPASE,[1],11.67 u/L
same,PHOSPHORUS,[1],10.65 mg/dL
same,POTASSIUM,[1],5.95 MEQ/L
same,SODIUM,[1],139.65 MEQ/L
same,TOTAL BILIRUBIN,[1],0.2 mg/dL
same,TOTAL PROTEIN,[1],5.72 G/DL
same,URIC ACID,[1],1.37 mg/dL
same,ABSOLUTE BASOPHIL,[2],0 CELLS/uL
same,ABSOLUTE EOSINOPHIL,[2],331.5 CELLS/uL
same,ABSOLUTE LYMPHOCYTE,[2],15021.67 CELLS/uL
same,ABSOLUTE MONOCYTE,[2],376.5 CELLS/uL
same,ABSOLUTE SEGMENTED NEUTROPHIL,[2],3070.33 CELLS/uL
same,BASOPHIL,[2],0%
same,EOSINOPHIL,[2],1.83%
same,ERYTHROCYTE COUNT,[2],5.24 x10E6/uL
same,HEMATOCRIT,[2],33.22%
same,HEMOGLOBIN,[2],13.2 G/DL
same,LEUKOCYTE COUNT,[2],18.8 x10E3/uL
same,LYMPHOCYTE,[2],79.67%
same,MEAN CORPUSCULAR HEMOGLOBIN,[2],25.17 pg
same,MEAN CORPUSCULAR HEMOGLOBIN CONCENTRATION,[2],39.73 G/DL
same,MEAN CORPUSCULAR VOLUME,[2],63.38 fL
same,MONOCYTE,[2],2%
same,NEUTROPHIL,[2],16.5%
same,NUCLEATED RED BLOOD CELLS,[2],0 /100WBC
same,PLATELET COUNT,[2],1142.67 x10E3/uL
same,ALANINE AMINOTRANSFERASE,[2],52.5 u/L
same,ALBUMIN,[2],3.9 G/DL
same,ALKALINE PHOSPHATASE,[2],284.5 u/L
same,ASPARTATE AMINOTRANSFERASE,[2],81.33 u/L
same,BLOOD UREA NITROGEN,[2],16 mg/dL
same,CARBON DIOXIDE,[2],25.33 mmol/L
same,CHLORIDE,[2],99.5 MEQ/L
same,CHOLESTEROL,[2],74.83 mg/dL
same,CREATINE PHOSPHOKINASE,[2],448.33 u/L
same,CREATININE,[2],0.37 mg/dL
same,GLUCOSE,[2],164.17 mg/dL
same,LACTATE DEHYDROGENASE,[2],290.67 u/L
same,LIPASE,[2],6.83 u/L
same,PHOSPHORUS,[2],11.5 mg/dL
same,POTASSIUM,[2],6.28 MEQ/L
same,SODIUM,[2],139.5 MEQ/L
same,TOTAL BILIRUBIN,[2],0.13 mg/dL
same,TOTAL PROTEIN,[2],5.55 G/DL
same,URIC ACID,[2],1.12 mg/dL
same,ABSOLUTE BASOPHIL,[3],0 CELLS/uL
same,ABSOLUTE EOSINOPHIL,[3],0 CELLS/uL
same,ABSOLUTE LYMPHOCYTE,[3],5797 CELLS/uL
same,ABSOLUTE MONOCYTE,[3],86.67 CELLS/uL
same,ABSOLUTE SEGMENTED NEUTROPHIL,[3],549.67 CELLS/uL
same,BASOPHIL,[3],0%
same,EOSINOPHIL,[3],0%
same,ERYTHROCYTE COUNT,[3],5.41 x10E6/uL
same,HEMATOCRIT,[3],34.57%
same,HEMOGLOBIN,[3],13.57 G/DL
same,LEUKOCYTE COUNT,[3],6.43 x10E3/uL
same,LYMPHOCYTE,[3],90%
same,MEAN CORPUSCULAR HEMOGLOBIN,[3],25.13 pg
same,MEAN CORPUSCULAR HEMOGLOBIN CONCENTRATION,[3],39.27 G/DL
same,MEAN CORPUSCULAR VOLUME,[3],64.03 fL
same,MONOCYTE,[3],1.33%
same,NEUTROPHIL,[3],8.67%
same,NUCLEATED RED BLOOD CELLS,[3],0 /100WBC
same,PLATELET COUNT,[3],1201 x10E3/uL
same,ALANINE AMINOTRANSFERASE,[3],52.33 u/L
same,ALBUMIN,[3],3.9 G/DL
same,ALKALINE PHOSPHATASE,[3],346.33 u/L
same,ASPARTATE AMINOTRANSFERASE,[3],78 u/L
same,BLOOD UREA NITROGEN,[3],14 mg/dL
same,CARBON DIOXIDE,[3],24.67 mmol/L
same,CHLORIDE,[3],103 MEQ/L
same,CHOLESTEROL,[3],70.33 mg/dL
same,CREATINE PHOSPHOKINASE,[3],221.67 u/L
same,CREATININE,[3],0.12 mg/dL
same,GLUCOSE,[3],172.67 mg/dL
same,LACTATE DEHYDROGENASE,[3],139.33 u/L
same,LIPASE,[3],10 u/L
same,PHOSPHORUS,[3],11.1 mg/dL
same,POTASSIUM,[3],5.8 MEQ/L
same,SODIUM,[3],142.37 MEQ/L
same,TOTAL BILIRUBIN,[3],0.13 mg/dL
same,TOTAL PROTEIN,[3],5.57 G/DL
same,URIC ACID,[3],1.63 mg/dL
